Common to all, as to test: biochemical
The target in assay [1] is T1, GlmU (Mycobacterium tuberculosis, UniProt P9WMN3). Details: Inhibition constants from double reciprocal plots, DTNB acetyltransferase assay with varied substrate.
Assay [2] addresses T1, GlmU. Details: Inhibition constants from double reciprocal plots, DTNB acetyltransferase assay with varied substrate. This is another data set of the same source.
Assay [3] has as its target T1, GlmU. Details: DTNB colorimetric assay of GlmU acetyltransferase activity, absorbance at 405 nm.
The target in assay [4] is T1, GlmU. Details: Inhibition constants from double reciprocal plots, DTNB acetyltransferase assay with varied substrate. This is another data set of the same source.

The term Ki denotes a measure of affinity in units of concentration, obtained from inhibition or displacement. The low end stands for a stronger hold on the target, the high end for a looser hold on the target. A word on the IC50: it is the concentration that gives 50% inhibition. A higher IC50 goes with weaker potency.

Each structure is given as a SMILES string. Read-outs that look alike come from different tables or passages of the source.

T1 sequence (P9WMN3 2-495): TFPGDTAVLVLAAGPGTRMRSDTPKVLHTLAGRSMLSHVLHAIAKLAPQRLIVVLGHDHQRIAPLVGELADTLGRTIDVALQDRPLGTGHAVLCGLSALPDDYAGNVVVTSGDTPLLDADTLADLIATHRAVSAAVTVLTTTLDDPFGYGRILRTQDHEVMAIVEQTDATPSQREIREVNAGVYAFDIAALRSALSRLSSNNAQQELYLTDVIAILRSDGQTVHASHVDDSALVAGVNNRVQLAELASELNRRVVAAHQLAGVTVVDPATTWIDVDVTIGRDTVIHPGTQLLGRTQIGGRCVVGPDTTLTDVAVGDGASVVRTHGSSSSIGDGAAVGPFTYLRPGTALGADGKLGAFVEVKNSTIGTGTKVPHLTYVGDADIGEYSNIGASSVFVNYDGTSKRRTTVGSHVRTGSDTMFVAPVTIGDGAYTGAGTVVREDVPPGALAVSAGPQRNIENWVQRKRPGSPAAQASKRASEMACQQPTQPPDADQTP

`O=c1oc2ccccc2c2c1Sc1ccccc1N2` [BCTZ, 6,12-dihydrobenzo[b]chromeno[4,3-e][1,4]thiazin-6-one]: the Ki on GlmU [1] worked out at 81.6 µM; on GlmU [2] it was 82.8 µM. For the same molecule, the IC50 against GlmU [3] stood at 61.7 µM.
Turning to `O=C1C=CC(=O)N1c1cccc(N2C(=O)C=CC2=O)c1` [DHPP, 1-[3-(2,5-dioxo-2,5-dihydro-1H-pyrrol-1-yl)phenyl]-2,5-dihydro-1H-pyrrole-2,5-dione], the Ki was 26.3 µM on GlmU [2] and 26.4 µM on GlmU [4]. Besides, it took 10.3 µM to reach half-maximal inhibition against GlmU [3] (IC50).
For the molecule `Cc1ccc(C)n1-c1ccsc1C(=O)O` [MPTC, 3-(2,5-dimethyl-1H-pyrrol-1-yl)thiophene-2-carboxylic acid], on GlmU [3], the IC50 was determined as 159 µM.
With `O=C1NC(=S)SC1=Cc1ccc(OCc2ccc([N+](=O)[O-])cc2)cc1` [NBTT, 5-{4-[(4-nitrobenzyl)oxy]benzylidene}-2-thioxo-1,3-thiazolan-4-one], the Ki on GlmU [2] came to 41.3 µM; at GlmU [4], 40.2 µM. For the same molecule, the IC50 against GlmU [3] stood at 65.1 µM.
`O=C1CC(=O)c2c1cccc2[N+](=O)[O-]` [NID, 4-nitroindane-1,3-dione] returned an IC50 on GlmU [3] of 124 µM.

These data come from paper PMC6652808, “The Inhibitory Effect of GlmU Acetyltransferase Inhibitor TPSA on Mycobacterium tuberculosis May Be Affected Due to Its Methylation by Methyltransferase Rv0560c” (Frontiers in Cellular and Infection Microbiology, 2019).
